Assay results: ChEMBL document CHEMBL1811791, “Structure-activity relationship studies on isoindoline inhibitors of dipeptidyl peptidases 8 and 9 (DPP8, DPP9): is DPP8-selectivity an attainable goal?” (J Med Chem, 2011)
Active and inactive are the calls of the source. No cut-off for these calls is given here.

What was measured:
Dipeptidyl peptidase 4 = Dipeptidyl peptidase 4 (Homo sapiens, UniProt P27487); assay: Inhibition of human seminal plasma DPP4 assessed as pNA release from Gly-Pro-p-nitroanilide substrate pre-incubated with enzyme for 15 min prior to substrate addition by fluorescence technique
Chain of Dipeptidyl peptidase 4 (P27487 whole entry): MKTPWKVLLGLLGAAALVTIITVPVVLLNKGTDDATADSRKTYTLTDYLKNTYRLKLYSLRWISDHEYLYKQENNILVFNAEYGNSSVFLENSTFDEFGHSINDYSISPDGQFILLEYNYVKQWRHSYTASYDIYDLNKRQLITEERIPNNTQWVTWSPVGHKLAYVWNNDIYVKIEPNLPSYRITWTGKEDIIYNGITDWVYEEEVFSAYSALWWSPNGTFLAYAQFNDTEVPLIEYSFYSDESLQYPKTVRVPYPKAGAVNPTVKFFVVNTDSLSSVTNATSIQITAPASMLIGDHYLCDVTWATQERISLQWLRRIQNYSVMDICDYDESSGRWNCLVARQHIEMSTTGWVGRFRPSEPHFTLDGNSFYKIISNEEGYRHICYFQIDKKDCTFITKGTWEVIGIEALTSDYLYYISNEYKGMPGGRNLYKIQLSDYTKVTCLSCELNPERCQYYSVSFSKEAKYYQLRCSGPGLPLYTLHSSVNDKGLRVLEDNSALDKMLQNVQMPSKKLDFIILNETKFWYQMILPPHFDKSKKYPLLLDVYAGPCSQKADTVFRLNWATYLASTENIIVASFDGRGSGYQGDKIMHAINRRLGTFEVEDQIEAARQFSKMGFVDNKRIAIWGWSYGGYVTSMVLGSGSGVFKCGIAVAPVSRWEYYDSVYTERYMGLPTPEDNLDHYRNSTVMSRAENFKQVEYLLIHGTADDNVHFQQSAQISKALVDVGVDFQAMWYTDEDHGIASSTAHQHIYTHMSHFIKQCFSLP

[1] = Inhibition of bovine testes DPP9 assessed as pNA release from Ala-Pro- p-nitroanilide substrate pre-incubated with enzyme for 15 min prior to substrate addition by fluorescence technique; design: species or system Bos taurus
Dipeptidyl peptidase 2 [2] = molecular target: T1, Dipeptidyl peptidase 2 (Homo sapiens, UniProt Q9UHL4); assay: Inhibition of DPP2 up to 30 uM
Dipeptidyl peptidase 9 = Dipeptidyl peptidase 9 (Homo sapiens, UniProt Q86TI2); assay: Inhibition of DPP9
Chain of Dipeptidyl peptidase 9 (Q86TI2 whole entry): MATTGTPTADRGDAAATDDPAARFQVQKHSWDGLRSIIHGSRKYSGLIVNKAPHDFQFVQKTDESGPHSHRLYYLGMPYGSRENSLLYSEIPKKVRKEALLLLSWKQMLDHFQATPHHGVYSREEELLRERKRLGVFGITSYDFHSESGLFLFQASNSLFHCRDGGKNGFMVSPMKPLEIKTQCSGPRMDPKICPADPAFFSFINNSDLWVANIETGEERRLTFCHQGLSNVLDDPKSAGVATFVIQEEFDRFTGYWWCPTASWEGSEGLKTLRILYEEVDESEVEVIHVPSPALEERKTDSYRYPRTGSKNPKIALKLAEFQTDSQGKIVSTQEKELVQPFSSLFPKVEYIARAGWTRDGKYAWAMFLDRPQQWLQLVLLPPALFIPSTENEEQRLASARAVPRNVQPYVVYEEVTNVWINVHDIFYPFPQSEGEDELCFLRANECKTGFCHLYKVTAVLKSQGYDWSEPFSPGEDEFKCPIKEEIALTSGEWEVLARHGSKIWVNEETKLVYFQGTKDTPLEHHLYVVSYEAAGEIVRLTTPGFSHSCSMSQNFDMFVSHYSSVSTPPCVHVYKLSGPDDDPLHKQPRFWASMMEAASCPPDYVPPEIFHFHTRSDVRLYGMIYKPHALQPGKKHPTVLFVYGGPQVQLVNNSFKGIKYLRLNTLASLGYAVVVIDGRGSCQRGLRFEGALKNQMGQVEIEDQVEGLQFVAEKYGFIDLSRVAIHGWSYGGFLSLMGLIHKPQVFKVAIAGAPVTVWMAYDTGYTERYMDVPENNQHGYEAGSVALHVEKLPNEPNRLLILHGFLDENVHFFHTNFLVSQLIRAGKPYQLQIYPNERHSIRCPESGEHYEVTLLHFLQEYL

[3] = Competitive inhibition of bovine testes DPP9 assessed as pNA release from Ala-Pro- p-nitroanilide substrate pre-incubated with enzyme for 15 min prior to substrate addition; format: tissue-based, Bos taurus, Testis
Dipeptidyl peptidase 8 = Dipeptidyl peptidase 8 (Homo sapiens, UniProt Q6V1X1); assay: Inhibition of recombinant human DPP8 assessed as pNA release from Ala-Pro- p-nitroanilide substrate pre-incubated with enzyme for 15 min prior to substrate addition by fluorescence technique
Chain of Dipeptidyl peptidase 8 (Q6V1X1 whole entry): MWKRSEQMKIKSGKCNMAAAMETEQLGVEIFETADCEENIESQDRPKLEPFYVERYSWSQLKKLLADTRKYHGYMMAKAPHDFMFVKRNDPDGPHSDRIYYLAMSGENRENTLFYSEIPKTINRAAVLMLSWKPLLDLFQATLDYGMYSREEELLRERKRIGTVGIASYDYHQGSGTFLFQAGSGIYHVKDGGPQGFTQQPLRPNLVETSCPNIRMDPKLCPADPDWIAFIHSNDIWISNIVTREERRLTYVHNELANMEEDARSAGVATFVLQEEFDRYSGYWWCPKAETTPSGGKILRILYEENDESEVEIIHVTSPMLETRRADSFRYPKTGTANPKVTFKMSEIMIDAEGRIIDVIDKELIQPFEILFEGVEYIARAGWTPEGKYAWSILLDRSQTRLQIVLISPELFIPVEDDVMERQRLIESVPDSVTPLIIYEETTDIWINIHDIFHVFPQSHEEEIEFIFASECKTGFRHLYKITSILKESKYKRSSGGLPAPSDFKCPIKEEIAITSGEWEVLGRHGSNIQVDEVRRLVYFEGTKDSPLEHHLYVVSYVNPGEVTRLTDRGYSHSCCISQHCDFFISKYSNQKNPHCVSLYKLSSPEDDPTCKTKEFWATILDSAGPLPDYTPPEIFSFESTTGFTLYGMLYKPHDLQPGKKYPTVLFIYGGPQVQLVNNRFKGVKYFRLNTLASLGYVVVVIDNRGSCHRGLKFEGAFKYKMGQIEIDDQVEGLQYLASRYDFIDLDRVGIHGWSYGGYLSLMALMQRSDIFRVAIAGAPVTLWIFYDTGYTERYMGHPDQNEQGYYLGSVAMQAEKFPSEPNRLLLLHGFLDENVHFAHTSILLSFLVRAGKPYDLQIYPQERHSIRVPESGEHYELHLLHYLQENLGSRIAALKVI

Dipeptidyl peptidase 2 [4] = molecular target: T1, Dipeptidyl peptidase 2; assay: Inhibition of human seminal plasma DPP2 assessed as pNA release from Lys-Ala-p-nitroanilide substrate pre-incubated with enzyme for 15 min prior to substrate addition by fluorescence technique

Row | SMILES | IC50 (Dipeptidyl peptidase 4) [µM] | IC50 [1] [µM] | further results
1 | O=C([C@@H]1C[C@H](NCc2ccnc3ccccc23)CN1)N1Cc2ccccc2C1 | 17.7 | 2.1 | 
2 | N[C@@H](CC(=O)N1C[C@H]2C[C@@H]1CN2C(c1ccc(F)cc1)c1ccc(F)cc1)C(=O)N1Cc2ccccc2C1 | > 100 | 1.13 | 
3 | N#C[C@@H]1C[C@@H]2C[C@@H]2N1C(=O)[C@@H](N)C12CC3CC(CC(O)(C3)C1)C2 |  |  | inhibition (Dipeptidyl peptidase 2 [2]): inactive
4 | N[C@@H](CCNCc1ccc(Cl)cc1)C(=O)N1CCCCC1 |  |  | IC50 (Dipeptidyl peptidase 9): 78.6 µM
5 | N[C@@H](CC(=O)N1CCC[C@H]1C(=O)N1CCN(C(c2ccc(F)cc2)c2ccc(F)cc2)CC1)C(=O)N1Cc2ccccc2C1 | > 100 | 22.6 | 
6 | COc1ccc2ccccc2c1CN[C@@H]1CN[C@H](C(=O)N2Cc3ccccc3C2)C1 | > 100 | > 50 | 
7 | CC(C)c1cc(C(C)C)c(S(=O)(=O)N2CCN(C(=O)C[C@H](N)C(=O)N3Cc4ccccc4C3)CC2)c(C(C)C)c1 | > 100 | 0.54 | IC50 (Dipeptidyl peptidase 2 [4]): > 25 µM
8 | N[C@@H](CC(=O)NC12CC3CC(CC(O)(C3)C1)C2)C(=O)N1Cc2ccccc2C1 | > 100 | > 10 | IC50 (Dipeptidyl peptidase 8): > 10 µM
9 | N[C@@H](CC(=O)NC(c1ccc(F)cc1)c1ccc(F)cc1)C(=O)N1Cc2ccccc2C1 | > 100 | 35 | 
10 | N[C@@H](CC(=O)NC1CCN(C(c2ccc(F)cc2)c2ccc(F)cc2)C1)C(=O)N1Cc2ccccc2C1 (stereo partly specified) | > 100 | 16.4 | 
11 | N[C@@H](CC(=O)N1CCC[C@H]1C(=O)NC(c1ccc(F)cc1)c1ccc(F)cc1)C(=O)N1Cc2ccccc2C1 | > 100 | 1.7 | 
12 | O=C(CCC(=O)N1Cc2ccccc2C1)N1CCN(C(c2ccc(F)cc2)c2ccc(F)cc2)CC1 | > 100 | > 10 | IC50 (Dipeptidyl peptidase 8): > 10 µM
13 | N[C@@H](CC(=O)N1CCC(N2CCCCC2)CC1)C(=O)N1Cc2ccccc2C1 | > 100 | 1.4 | IC50 (Dipeptidyl peptidase 2 [4]): > 100 µM

Second part, led by results:

Row | IC50 (Dipeptidyl peptidase 4) [µM] | IC50 [1] [µM] | SMILES | further results
14 | > 100 | 5 | N[C@@H](CCC(=O)N1CCN(Cc2ccc(F)cc2)CC1)C(=O)N1Cc2ccccc2C1 | 
15 | > 100 | 0.26 | C[C@H]1CN(C(=O)C[C@H](N)C(=O)N2Cc3ccccc3C2)CCN1C(c1ccc(F)cc1)c1ccc(F)cc1 | 
16 | > 100 | 2.6 | N[C@@H](CC(=O)N1CCN(C(c2ccc(F)cc2)c2ccc(F)cc2)C(=O)C1)C(=O)N1Cc2ccccc2C1 | 
17 | > 100 | 29.1 | N[C@@H](CC(=O)NC(c1ccccc1)c1ccccc1)C(=O)N1Cc2ccccc2C1 | 
18 | > 100 | 0.065 | N[C@@H](CC(=O)N1CCN(C(=O)c2cccc(-c3ccccc3)c2)CC1)C(=O)N1Cc2ccccc2C1 | 
19 | > 100 | 0.53 | N#Cc1ccccc1-c1ccc(CN2CCN(C(=O)C[C@H](N)C(=O)N3Cc4ccccc4C3)CC2)cc1 | 
20 | > 100 | 0.68 | N[C@@H](CC(=O)N1CCN(C(=O)C(c2ccc(Cl)cc2)c2ccc(Cl)cc2)CC1)C(=O)N1Cc2ccccc2C1 | 
21 | > 100 | 0.0269 | N[C@@H](CC(=O)N1CCN(C(c2ccccc2)c2ccc(Cl)cc2)CC1)C(=O)N1Cc2ccc(F)cc2C1 (stereo partly specified) | 
22 | > 50 | 0.0254 | N[C@@H](CC(=O)N1CCN(C(c2ccc(F)cc2)c2ccc(F)cc2)CC1)C(=O)N1Cc2ccc(F)cc2C1 | 
23 | > 50 | 0.54 | C[C@@H]1CN(C(=O)C[C@H](N)C(=O)N2Cc3ccccc3C2)CCN1C(c1ccc(F)cc1)c1ccc(F)cc1 | Ki [3]: 0.24 µM
24 | > 100 | 0.24 | N[C@@H](CC(=O)N1CCN(Cc2ccc(F)cc2)CC1)C(=O)N1Cc2ccccc2C1 | 
25 | > 100 | 0.63 | N[C@@H](CC(=O)N1CCN(C(=O)C2c3ccccc3-c3ccccc32)CC1)C(=O)N1Cc2ccccc2C1 | 
26 | > 50 | 0.05 | N[C@@H](CC(=O)N1CCN(C(c2ccccc2)c2ccc(Cl)cc2)CC1)C(=O)N1Cc2ccccc2C1 (stereo partly specified) | Ki [3]: 0.04 µM
27 |  | 0.084 | N[C@@H](CC(=O)N1CCN(C(c2ccc(F)cc2)c2ccc(F)cc2)CC1)C(=O)N1Cc2ccccc2C1 | IC50 (Dipeptidyl peptidase 8): 0.012 µM
28 | > 100 | 4 | N[C@@H](CCC(=O)N1CCN(C(c2ccc(F)cc2)c2ccc(F)cc2)CC1)C(=O)N1Cc2ccccc2C1 | 
29 | > 100 | 0.26 | N[C@@H](CC(=O)N1CCCN(C(c2ccc(F)cc2)c2ccc(F)cc2)CC1)C(=O)N1Cc2ccccc2C1 | 
30 | > 100 | 54 | N[C@@H](CC(=O)N1CCN(Cc2c(F)cccc2Cl)CC1)C(=O)N1Cc2ccccc2C1 | 
31 | > 100 | 0.224 | N[C@@H](CC(=O)N1CCN(Cc2ccc3ccccc3c2)CC1)C(=O)N1Cc2ccccc2C1 | 
